In ChEMBL document CHEMBL5113532, “Design and Characterization of a Natural Arf-GEFs Inhibitor Prodrug CHNQD-01255 with Potent Anti-Hepatocellular Carcinoma Efficacy In Vivo” (J Med Chem, 2022):
pIC50: −log10 of the molar value. In brackets after ≈: the same amount, converted by molar mass.

Assays:
HepG2 = test: Antiproliferative activity against human HepG2 cells by MTT assay; format: functional, cell-based
Bel-7402 = test: Antiproliferative activity against human Bel-7402 cells by MTT assay; format: functional, cell-based
[1] = Solubility of the compound in PBS/DMSO (95/5% V/V) at pH 7.2 to 7.4; format: physicochemical
[2] = Solubility of the compound in saline/DMSO/solutol HS-15 (85/5/10% V/V/V) at pH 7.4; format: physicochemical
[3] = Solubility of the compound in saline/PEG400 (80/20% V/V) at pH 7.4; format: physicochemical
[4] = Solubility of the compound in saline/solutol HS-15 (90/10% V/V) at pH 7.4; format: physicochemical
[5] = Solubility of the compound in saline/DMSO (95/5% V/V) at pH 7.4; format: physicochemical
[6] = Solubility of the compound in 0.9% NaCl at pH 7.4; format: physicochemical
[7] = Solubility of the compound in saline/PEG400 (95/5% V/V) at pH 7.4; format: physicochemical
[8] = Solubility of the compound in saline/solutol HS-15 (95/5% V/V) at pH 7.4; format: physicochemical
[9] = Acute toxicity in po dosed ICR mouse assessed as maximum tolerated dose; format: organism-based; settings: in vivo
[10] = Apparent volume of distribution in ICR mouse at 10 mg/kg, iv measured after 0.083 to 12 hrs by UPLC-MS/MS analysis; format: ADME, organism-based; settings: in vivo, time 0.083-12 hrs, read-out: Vz
[11] = Clearance in ICR mouse at 45 mg/kg, po measured after 0.083 to 12 hrs by UPLC-MS/MS analysis; format: ADME, organism-based; settings: in vivo, time 0.083-12 hrs
[12] = MRT (0 to t) in ICR mouse at 45 mg/kg, po measured after 0.083 to 12 hrs by UPLC-MS/MS analysis; format: ADME, organism-based; settings: in vivo, time 0.083-12 hrs
[13] = Acute toxicity in ip dosed ICR mouse assessed as maximum tolerated dose; format: organism-based; settings: in vivo
[14] = Half life in ICR mouse at 45 mg/kg, po measured after 0.083 to 12 hrs by UPLC-MS/MS analysis; format: ADME, organism-based; settings: in vivo, time 0.083-12 hrs
[15] = Apparent volume of distribution in ICR mouse at 45 mg/kg, po measured after 0.083 to 12 hrs by UPLC-MS/MS analysis; format: ADME, organism-based; settings: in vivo, time 0.083-12 hrs
[16] = Cmax in ICR mouse at 45 mg/kg, po measured after 0.083 to 12 hrs by UPLC-MS/MS analysis; format: ADME, organism-based; set-up: dose 45 mg/kg, time upper 12 hrs, time lower 0.083 hrs, route po; settings: in vivo
[17] = Cmax in ICR mouse at 10 mg/kg, iv measured after 0.083 to 12 hrs by UPLC-MS/MS analysis; format: ADME, organism-based; set-up: time 0.083-12 hrs, dose 10 mg/kg, route iv; settings: in vivo
[18] = Oral bioavailability in ICR mouse at 45 mg/kg measured after 0.083 to 12 hrs by UPLC-MS/MS analysis; format: ADME, organism-based; settings: in vivo, time 0.083-12 hrs
[19] = AUC (0 to t) in ICR mouse at 45 mg/kg, po measured after 0.083 to 12 hrs by UPLC-MS/MS analysis; format: ADME, organism-based; set-up: dose 45 mg/kg, time upper 12 hrs, time lower 0.083 hrs, route po; settings: in vivo
[20] = Clearance in ICR mouse at 10 mg/kg, iv measured after 0.083 to 12 hrs by UPLC-MS/MS analysis; format: ADME, organism-based; settings: in vivo, time 0.083-12 hrs
[21] = MRT (0 to t) in ICR mouse at 10 mg/kg, iv measured after 0.083 to 12 hrs by UPLC-MS/MS analysis; format: ADME, organism-based; settings: in vivo, time 0.083-12 hrs
[22] = Half life in ICR mouse at 10 mg/kg, iv measured after 0.083 to 12 hrs by UPLC-MS/MS analysis; format: ADME, organism-based; settings: in vivo, time 0.083-12 hrs
[23] = AUC(0 to t) in ICR mouse at 10 mg/kg, iv measured after 0.083 to 12 hrs by UPLC-MS/MS analysis; format: ADME, organism-based; set-up: time upper 12 hrs, dose 10 mg/kg, time lower 0.083 hrs, route iv; settings: in vivo

C[C@H]1CCC/C=C/[C@@H]2C[C@H](O)C[C@H]2[C@H](OC(=O)c2cccnc2)/C=C/C(=O)O1
pIC50 (HepG2): < 6.00 | pIC50 (Bel-7402): 6.57

C[C@H]1CCC/C=C/[C@@H]2C[C@H](OC(=O)c3ccccn3)C[C@H]2[C@H](O)/C=C/C(=O)O1
pIC50 (HepG2): 6.54

C[C@H]1CCC/C=C/[C@@H]2C[C@H](OC(=O)c3cncc(F)c3)C[C@H]2[C@H](O)/C=C/C(=O)O1
pIC50 (HepG2): 6.17

C[C@H]1CCC/C=C/[C@@H]2C[C@H](OC(=O)c3ccccn3)C[C@H]2[C@H](OC(=O)c2ccccn2)/C=C/C(=O)O1
pIC50 (HepG2): 6.47

COC(=O)O[C@@H]1C[C@H]2[C@H](O)/C=C/C(=O)O[C@@H](C)CCC/C=C/[C@@H]2C1
pIC50 (HepG2): < 6.00

C[C@H]1CCC/C=C/[C@@H]2C[C@H](OC(=O)Nc3ccccc3)C[C@H]2[C@H](O)/C=C/C(=O)O1
pIC50 (HepG2): < 6.00

Cc1cncc(C(=O)O[C@@H]2C[C@H]3[C@H](O)/C=C/C(=O)O[C@@H](C)CCC/C=C/[C@@H]3C2)c1
pIC50 (HepG2): < 6.00

C[C@H]1CCC/C=C/[C@@H]2C[C@H](OC(=O)OCCS)C[C@H]2[C@H](O)/C=C/C(=O)O1
pIC50 (HepG2): < 6.00

C[C@H]1CCC/C=C/[C@@H]2C[C@H](OC(=O)NCc3cccnc3)C[C@H]2[C@H](O)/C=C/C(=O)O1
pIC50 (HepG2): < 6.00

C[C@H]1CCC/C=C/[C@@H]2C[C@H](OC(=O)CN(C)C)C[C@H]2[C@H](O)/C=C/C(=O)O1
pIC50 (HepG2): < 6.00 | pIC50 (Bel-7402): < 6.00

COc1cccc2c1C(=O)c1c(O)c3c(c(O)c1C2=O)C[C@@](O)(C(=O)CO)C[C@@H]3O[C@H]1C[C@H](N)[C@H](O)[C@H](C)O1 [DOXORUBICIN]
pIC50 (HepG2): 6.41 | pIC50 (Bel-7402): < 6.00

C[C@H]1CCC/C=C/[C@@H]2C[C@H](O)C[C@H]2[C@H](OC(=O)c2ccncc2)/C=C/C(=O)O1
pIC50 (HepG2): 6.19

C[C@H]1CCC/C=C/[C@@H]2C[C@H](OC(=O)NCCO)C[C@H]2[C@H](O)/C=C/C(=O)O1
pIC50 (HepG2): < 6.00

C[C@H]1CCC/C=C/[C@@H]2C[C@H](O)C[C@H]2[C@H](OC(=O)OCc2cccnc2)/C=C/C(=O)O1
pIC50 (HepG2): < 6.00 | pIC50 (Bel-7402): 6.57

C[C@H]1CCC/C=C/[C@@H]2C[C@H](OC(=O)OCc3ccccn3)C[C@H]2[C@H](O)/C=C/C(=O)O1
pIC50 (HepG2): < 6.00

C[C@H]1CCC/C=C/[C@@H]2C[C@H](OC(=O)c3ccncc3)C[C@H]2[C@H](O)/C=C/C(=O)O1
pIC50 (HepG2): 6.34

C[C@H]1CCC/C=C/[C@@H]2C[C@H](OC(=O)NCc3ccccc3)C[C@H]2[C@H](O)/C=C/C(=O)O1
pIC50 (HepG2): < 6.00

C[C@H]1CCC/C=C/[C@@H]2C[C@H](O)C[C@H]2[C@H](OC(=O)c2cncc(F)c2)/C=C/C(=O)O1
pIC50 (HepG2): 6.03

C[C@H]1CCC/C=C/[C@@H]2C[C@H](OC(=O)OCc3cccnc3)C[C@H]2[C@H](OC(=O)OCc2cccnc2)/C=C/C(=O)O1
pIC50 (HepG2): < 6.00 | pIC50 (Bel-7402): 6.37

C[C@H]1CCC/C=C/[C@@H]2C[C@H](OC(=O)OCc3cncc(F)c3)C[C@H]2[C@H](O)/C=C/C(=O)O1
pIC50 (HepG2): < 6.00

Cc1cncc(C(=O)O[C@@H]2/C=C/C(=O)O[C@@H](C)CCC/C=C/[C@@H]3C[C@H](O)C[C@H]32)c1
pIC50 (HepG2): < 6.00

C[C@H]1CCC/C=C/[C@@H]2C[C@H](O)C[C@H]2[C@H](OC(=O)c2ccccn2)/C=C/C(=O)O1
pIC50 (HepG2): 6.02

C[C@H]1CCC/C=C/[C@@H]2C[C@H](OC(=O)OCc3ccncc3)C[C@H]2[C@H](O)/C=C/C(=O)O1
pIC50 (HepG2): < 6.00 | pIC50 (Bel-7402): < 6.00

C[C@H]1CCC/C=C/[C@@H]2C[C@H](OC(=O)c3cncc(F)c3)C[C@H]2[C@H](OC(=O)c2cncc(F)c2)/C=C/C(=O)O1
pIC50 (HepG2): < 6.00

C[C@H]1CCC/C=C/[C@@H]2C[C@H](OC(=O)OCc3cnc4ccccc4c3)C[C@H]2[C@H](O)/C=C/C(=O)O1
pIC50 (HepG2): < 6.00

C[C@H]1CCC/C=C/[C@@H]2C[C@H](OC(=O)c3cccnc3)C[C@H]2[C@H](O)/C=C/C(=O)O1
solubility [1]: < 1000 µg/mL | pIC50 (HepG2): 6.02 | solubility [2]: 3000 µg/mL (≈ 7.78 mM) | solubility [3]: < 1000 µg/mL | pIC50 (Bel-7402): 6.41 | solubility [4]: < 1000 µg/mL | solubility [5]: < 1000 µg/mL | solubility [6]: < 1000 µg/mL | solubility [7]: < 1000 µg/mL | solubility [8]: < 1000 µg/mL

COc1ccc(COC(=O)O[C@@H]2C[C@H]3[C@H](O)/C=C/C(=O)O[C@@H](C)CCC/C=C/[C@@H]3C2)cn1
pIC50 (HepG2): < 6.00

C[C@H]1CCC/C=C/[C@@H]2C[C@H](OC(=O)c3cccnc3)C[C@H]2[C@H](OC(=O)c2cccnc2)/C=C/C(=O)O1
pIC50 (HepG2): < 6.00 | pIC50 (Bel-7402): < 6.00

C[C@H]1CCC/C=C/[C@@H]2C[C@H](OC(=O)NCc3ccncc3)C[C@H]2[C@H](O)/C=C/C(=O)O1
pIC50 (HepG2): < 6.00

C[C@H]1CCC/C=C/[C@@H]2C[C@H](OC(=O)c3ccncc3)C[C@H]2[C@H](OC(=O)c2ccncc2)/C=C/C(=O)O1
pIC50 (HepG2): < 6.00

C[C@H]1CCC/C=C/[C@@H]2C[C@H](OC(=O)OCCc3cccnc3)C[C@H]2[C@H](O)/C=C/C(=O)O1
pIC50 (HepG2): 6.07 | pIC50 (Bel-7402): < 6.00

C[C@H]1CCC/C=C/[C@@H]2C[C@H](OC(=O)OCCSSCCO)C[C@H]2[C@H](O)/C=C/C(=O)O1
pIC50 (HepG2): < 6.00

C[C@H]1CCC/C=C/[C@@H]2C[C@H](O)C[C@H]2[C@H](O)/C=C/C(=O)O1 [BREFELDIN A]
MTD [9]: < 506 mg/kg | Vd [10]: 20.6 L/kg | CL/F [11]: 173 mL/min/kg | MRT last [12]: 1.4 h | MTD [13]: < 50 mg/kg | half-life [14]: 2.12 h | solubility [1]: < 1000 µg/mL | pIC50 (HepG2): 7.10 | Vz [15]: 31.87132 L/kg | solubility [2]: 1000 µg/mL (≈ 3.57 mM) | solubility [3]: < 1000 µg/mL | Cmax [16]: 7140 ng/mL | pIC50 (Bel-7402): 7.15 | solubility [4]: < 1000 µg/mL | Cmax [17]: 13200 ng/mL | solubility [5]: < 1000 µg/mL | bioavailability [18]: 19% | solubility [6]: < 1000 µg/mL | solubility [7]: < 1000 µg/mL | AUC(0-t) [19]: 4130 ng·h/mL | clearance [20]: 26.3 mL/min/kg | MRT last [21]: 0.84 h | solubility [8]: < 1000 µg/mL | half-life [22]: 9.05 h | AUC(0-t) [23]: 4840 ng·h/mL
